From patent US20230085945A1, “ORTHOGONAL SAFETY SWITCHES TO ELIMINATE GENETICALLY ENGINEERED CELLS” (The Board of Trustees of the Leland Stanford Junior …, priority 2020, published 2023)

Assays:
[1] = test system: undifferentiated NANOG^iCasp9-YFP hPSCs; assay: Clonal assay for surviving hPSC colonies after AP20187 treatment; format: cell-based, human; details: 1 nM AP20, 24-hour treatment; across 7 independent experiments
Protocol: FIG. 3: Implementation of the NANOG^iCasp9-YFP safety switch. A) Schema depicting how drug AP20187 induces dimerization of Caspase9 in undifferentiated NANOG^iCasp9-YFP hESCs, subsequently triggering cell death (top left). NANOG^iCasp9-YFP hESCs were treated for 24 hours with increasing concentrations of AP20187. AP20187 was withdrawn, and cultures were further grown in mTeSR1 to allow any surviving hESCs to grow; any surviving colonies were counted 1 week later (top right). Alkaline phosphatase staining of whole wells of a 12-well plate after 24-hour treatment with AP20187 (bottom). […] Bioluminescent imaging of mice occurred weekly for 5 weeks with no transplant control (NTC) animals included for relative luminescence normalization. Total flux (photons/sec) was measured for each animal and averaged. […] The percentage of surviving cells was calculated relative to untreated controls. […]
Clonal assay for surviving hPSC colonies—hPSCs were dissociated into single cells with Accutase (Thermo Fisher) and 1×10^6 cells were plated per well of a 6-well plate that was pre-coated with Matrigel. […] Subsequently, AP20187 was withdrawn altogether and hPSCs were cultured with mTeSR1 for 1 week, to allow any surviving hPSCs to regrow and to form clonal colonies, which were then scored (i.e., 1 surviving colony after AP20187 treatment of 1×10^6 hPSCs indicated survival of 1 out of 10^6 cells). […]

[2] = test system: NANOG mRNA and differentiation marker genes in NANOG^iCasp9-YFP hPSCs and differentiated cell-types; assay: qPCR of NANOG and marker gene expression after AP20187; format: cell-based, human; details: for expression of differentiation markers in differentiated cell-types: AP20187 1 nM, 24 hours
Protocol: FIG. 9: Efficacy of the NANOG^iCasp9-YFP safety switch (related to FIG. 3). A) Undifferentiated NANOG^iCasp9-YFP hPSCs were treated with AP20187 at the indicated concentrations for 24 hours, and then the percentage of viable remaining cells was subsequently analyzed using FACS analysis (left) and alamar blue staining (right). For the FACS analysis, the percentage of cells shown represents viable cells (i.e., DAPI-negative cells obtained after DAPI staining) that were then gated for YFP+ (i.e., NANOG^+) cells. For the alamar blue analysis, wild-type hPSCs were used as a negative control. […] AP20187 doses equal to or greater than 100 nM may prevent efficient killing of NANOG^iCasp9-YFP hPSCs by considerably downregulating NANOG. Gene expression is depicted normalized to the reference gene YWHAZ (i.e., YWHAZ=1.0). C) Undifferentiated NANOG^iCasp9-YFP hPSCs were treated with the indicated doses of AP20187 for various lengths of time (6, 12, 24, 48, 72 hours) and then alamar blue assay was performed immediately thereafter to quantify the extent of cell death. […] D) Immunofluorescent imaging of NANOG^iCasp9-YFP hESCs in the undifferentiated state and after differentiation into day 6 sclerotome as marked by TWIST1 expression, both without and with treatment of cells with 1 nM AP20187 for 24 hours. […] The following marker genes were assessed in each respective cell-type: sclerotome (bone) progenitors (TWIST1, SOX9, PAX1, PAX9), liver progenitors (SOX17, HNF4A, AFP, TBX3), and forebrain (neural) progenitors (PAX6, FOXG1, OTX2, SIX3). F) Further validation of NANOG^iCasp9-YFP using a simulated mixed cell culture assay. NANOG^iCasp9-YFP undifferentiated hPSCs and hPSC-derived derived sclerotome cells were mixed at a 3:7 ratio, respectively. Mixed cells were treated with AP20187, and 24 hours post-treatment, FACS analysis was done to assess remaining NANOG^iCasp9-YFP hPSCs in culture.
RNA extraction, reverse transcription and quantitative PCR. Undifferentiated or differentiated hPSCs were lysed in […] of RLT Plus Buffer and RNA was extracted using the RNeasy Plus Mini Kit (Qiagen) according to the manufacturer's protocol. 300 ng of total RNA was reverse transcribed into cDNA for qPCR using the High-Capacity cDNA Reverse Transcription Kit (Applied Biosystems) according to the manufacturer's protocol. qPCR was performed in 384-well format as previously described (Loh et al., 2016) on a QuantStudio 5 qPCR machine (Thermo Fisher). Expression of all genes was first normalized to the levels of the reference gene YWHAZ, and then plotted relative to the levels of YWHAZ (i.e., 1.0=equivalent to YWHAZ). The following forward and reverse primer sequences were used to detect the expression of the respective genes: […]

## CC[C@H](C(=O)N1CCCC[C@H]1C(=O)O[C@H](CCc1ccc(OC)c(OC)c1)c1cccc(OCC(=O)NCC(CNC(=O)COc2cccc([C@@H](CCc3ccc(OC)c(OC)c3)OC(=O)[C@@H]3CCCCN3C(=O)[C@@H](CC)c3cc(OC)c(OC)c(OC)c3)c2)CN(C)C)c1)c1cc(OC)c(OC)c(OC)c1 [AP20]
[1]
  depletion of undifferentiated hPSCs: 1.75×10^6 fold
[2]
  expression of differentiation markers in differentiated cell-types: not substantially effected
[2]; listed as AP20187
  expression of differentiation markers in differentiated cell-types: did not substantially impact marker gene expression
[2]; NANOG^iCasp9-YFP hPSCs
  doses that may prevent efficient killing by considerably downregulating NANOG: ≥ 100 nM
[2]; increasing doses of AP20187
  NANOG mRNA expression in undifferentiated hPSCs: downregulated NANOG mRNA expression
